Test results: ChEMBL document CHEMBL1201862, “PubChem BioAssay data set” (2004)
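All cell lines were grown in 96-well plates and treated with compound for 48 hours. The concentration for 50% growth inhibition is given as GI50.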 Activity calls are given as the source filed them. No stated cut-off is given here; in the data, active = GI50 up to about 1.1 µM and inactive = higher.

Experiments:
Test in all cases: DTP human tumour cell line panel, 48 h
NCI-H522 = system: NCI-H522
Malme-3M = system: Malme-3M
KM12 = system: KM12
NCI-H23 = system: NCI-H23
786-0 = system: 786-0
SW-620 = system: SW-620
TK-10 = system: TK-10
UACC-62 = system: UACC-62
NCI-H226 = system: NCI-H226
CCRF-CEM = system: CCRF-CEM
SN12C = system: SN12C
RPMI-8226 = system: RPMI-8226
UO-31 = system: UO-31
UACC-257 = system: UACC-257
SK-OV-3 = system: SK-OV-3
OVCAR-3 = system: OVCAR-3
SK-MEL-5 = system: SK-MEL-5
OVCAR-5 = system: OVCAR-5
DMS-114 = system: DMS-114
SK-MEL-2 = system: SK-MEL-2
IGROV-1 = system: IGROV-1
KM-20L2 = system: KM-20L2
M14 = system: M14
MOLT-4 = system: MOLT-4
ACHN = system: ACHN
K562 = system: K562
SF-268 = system: SF-268
SNB-19 = system: SNB-19
HOP-62 = system: HOP-62
LXFL 529 = system: LXFL 529
EKVX = system: EKVX
SF-539 = system: SF-539
SNB-78 = system: SNB-78
M19-MEL = system: M19-MEL
DLD-1 = system: DLD-1
A549 = system: A549
HT-29 = system: HT-29
HL-60 = system: HL-60
OVCAR-4 = system: OVCAR-4
HCT-116 = system: HCT-116
CAKI-1 = system: CAKI-1
U-251 = system: U-251
SF-295 = system: SF-295
HCT-15 = system: HCT-15
OVCAR-8 = system: OVCAR-8
A498 = system: A498
NCI-H460 = system: NCI-H460
XF498 = system: XF498
LOX IMVI = system: LOX IMVI
SR = system: SR
COLO 205 = system: COLO 205
RXF 393 = system: RXF 393
SK-MEL-28 = system: SK-MEL-28
SNB-75 = system: SNB-75
HCC 2998 = system: HCC 2998
DMS-273 = system: DMS-273
HOP-92 = system: HOP-92

Measured: GI50

COC(=O)[C@@]1(C)C(=O)CC[C@@H]1C=O
> 100 µM: HCT-15
inactive: NCI-H522 > 100 µM | Malme-3M > 100 µM | KM12 > 100 µM | NCI-H23 > 100 µM | 786-0 > 100 µM | SW-620 > 100 µM | TK-10 > 100 µM | UACC-62 > 100 µM | NCI-H226 > 100 µM | CCRF-CEM > 100 µM | SN12C > 100 µM | RPMI-8226 > 100 µM | UO-31 > 100 µM | UACC-257 > 100 µM | SK-OV-3 > 100 µM | OVCAR-3 > 100 µM | SK-MEL-5 > 100 µM | OVCAR-5 > 100 µM | DMS-114 > 100 µM | SK-MEL-2 > 100 µM | IGROV-1 > 100 µM | KM-20L2 > 100 µM | M14 > 100 µM | MOLT-4 > 100 µM | ACHN > 100 µM | K562 > 100 µM | SF-268 > 100 µM | SNB-19 > 100 µM | HOP-62 > 100 µM | LXFL 529 > 100 µM | EKVX > 100 µM | SF-539 > 100 µM | SNB-78 > 100 µM | M19-MEL > 100 µM | DLD-1 > 100 µM | A549 > 100 µM | HT-29 > 100 µM | HL-60 60.5 µM | OVCAR-4 > 100 µM | HCT-116 > 100 µM | CAKI-1 > 100 µM | U-251 > 100 µM | SF-295 > 100 µM | OVCAR-8 > 100 µM | A498 > 100 µM | NCI-H460 > 100 µM | XF498 > 100 µM | LOX IMVI > 100 µM | SR 82.2 µM | COLO 205 > 100 µM

Cc1cc(C)[n+]2c(c1)C=CC2.[O-][Cl+3]([O-])([O-])[O-]
inactive: NCI-H522 3.21 µM | Malme-3M 1.65 µM | KM12 27.6 µM | NCI-H23 15.7 µM | 786-0 37.2 µM | SW-620 4.18 µM | TK-10 92 µM | NCI-H226 15.6 µM | RXF 393 2.89 µM | SN12C 31.2 µM | SK-MEL-28 12.4 µM | UO-31 39.4 µM | UACC-257 11.5 µM | OVCAR-3 11.7 µM | SK-MEL-5 13.9 µM | OVCAR-5 > 100 µM | DMS-114 5.5 µM | SK-MEL-2 11 µM | KM-20L2 21.3 µM | SNB-75 6.05 µM | M14 8.11 µM | ACHN 17.7 µM | HCC 2998 > 100 µM | SF-268 64 µM | SNB-19 42.7 µM | HOP-62 57.1 µM | LXFL 529 16.5 µM | EKVX 21.6 µM | SF-539 22.8 µM | SNB-78 21.2 µM | M19-MEL 21.2 µM | DLD-1 10.7 µM | A549 18.1 µM | HOP-92 8.57 µM | HT-29 15.9 µM | HL-60 2.94 µM | OVCAR-4 49.9 µM | CAKI-1 15.6 µM | U-251 29.7 µM | SF-295 25.1 µM | OVCAR-8 28.6 µM | NCI-H460 34.8 µM | LOX IMVI 17.1 µM | COLO 205 15 µM
active: DMS-273 0.459 µM

C=CCC(OCCOCC)c1cc(OCCOCC)ccc1OC (stereo not drawn)
> 100 µM: HCT-15
inactive: NCI-H522 > 100 µM | Malme-3M > 100 µM | KM12 > 100 µM | 786-0 > 100 µM | SW-620 > 100 µM | TK-10 > 100 µM | UACC-62 > 100 µM | NCI-H226 > 100 µM | RXF 393 > 100 µM | CCRF-CEM > 100 µM | SN12C > 100 µM | SK-MEL-28 > 100 µM | RPMI-8226 > 100 µM | UO-31 > 100 µM | UACC-257 > 100 µM | SK-OV-3 > 100 µM | OVCAR-3 > 100 µM | SK-MEL-5 > 100 µM | OVCAR-5 > 100 µM | SK-MEL-2 > 100 µM | IGROV-1 > 100 µM | SNB-75 > 100 µM | M14 > 100 µM | MOLT-4 > 100 µM | ACHN > 100 µM | HCC 2998 > 100 µM | DMS-273 > 100 µM | K562 > 100 µM | SF-268 > 100 µM | SNB-19 > 100 µM | HOP-62 > 100 µM | LXFL 529 > 100 µM | EKVX > 100 µM | SF-539 > 100 µM | SNB-78 > 100 µM | M19-MEL > 100 µM | A549 > 100 µM | HOP-92 > 100 µM | HT-29 > 100 µM | HL-60 > 100 µM | OVCAR-4 > 100 µM | CAKI-1 > 100 µM | U-251 > 100 µM | SF-295 > 100 µM | OVCAR-8 > 100 µM | NCI-H460 > 100 µM | XF498 > 100 µM | LOX IMVI > 100 µM | COLO 205 > 100 µM

O=C(/N=C(/Nc1ccccc1)SCCS/C(=N\C(=O)c1ccccc1)Nc1ccccc1)c1ccccc1
54.8 µM: HCT-15
inactive: NCI-H522 22.2 µM | Malme-3M > 100 µM | KM12 62.5 µM | NCI-H23 59.8 µM | 786-0 61.4 µM | SW-620 > 100 µM | TK-10 > 100 µM | UACC-62 52.2 µM | NCI-H226 66.5 µM | RXF 393 29.6 µM | CCRF-CEM 64.6 µM | SN12C 63.1 µM | SK-MEL-28 49.8 µM | RPMI-8226 48.2 µM | UO-31 32.9 µM | UACC-257 42.5 µM | OVCAR-3 67.9 µM | SK-MEL-5 48.3 µM | OVCAR-5 > 100 µM | DMS-114 35.7 µM | SK-MEL-2 > 100 µM | IGROV-1 > 100 µM | KM-20L2 68.9 µM | SNB-75 29.5 µM | M14 60.5 µM | MOLT-4 38.7 µM | ACHN 55.7 µM | HCC 2998 34.9 µM | DMS-273 78.3 µM | K562 43.6 µM | SF-268 41.5 µM | SNB-19 56.4 µM | HOP-62 86.5 µM | LXFL 529 56.2 µM | EKVX > 100 µM | SF-539 68.2 µM | SNB-78 > 100 µM | M19-MEL 63.5 µM | DLD-1 49.8 µM | A549 65.2 µM | HOP-92 16.8 µM | HT-29 35.6 µM | OVCAR-4 42.1 µM | HCT-116 46.8 µM | CAKI-1 33.7 µM | U-251 79.8 µM | SF-295 58.9 µM | OVCAR-8 71.1 µM | A498 58.7 µM | NCI-H460 44.3 µM | XF498 36.9 µM | LOX IMVI 58.6 µM | COLO 205 > 100 µM

O=C1OC(CCCl)(c2ccccc2)CC1CN1CCOCC1 (stereo not drawn)
20.9 µM: HCT-15
inactive: NCI-H522 18.7 µM | Malme-3M 18.4 µM | KM12 20.2 µM | NCI-H23 8.95 µM | 786-0 12.1 µM | SW-620 17 µM | TK-10 16.4 µM | UACC-62 21 µM | NCI-H226 13.8 µM | RXF 393 17.2 µM | CCRF-CEM 11.4 µM | SN12C 29.2 µM | SK-MEL-28 19.7 µM | RPMI-8226 3.84 µM | UO-31 68.9 µM | UACC-257 22.5 µM | SK-OV-3 > 100 µM | OVCAR-3 17.8 µM | SK-MEL-5 19.7 µM | OVCAR-5 > 100 µM | DMS-114 20.4 µM | SK-MEL-2 24.3 µM | IGROV-1 23.6 µM | KM-20L2 39.5 µM | SNB-75 15.4 µM | M14 20.4 µM | MOLT-4 18 µM | ACHN 32.2 µM | HCC 2998 26.3 µM | K562 14.8 µM | SF-268 41.4 µM | HOP-62 50.5 µM | LXFL 529 18.8 µM | EKVX 19.9 µM | SF-539 27.2 µM | SNB-78 26.2 µM | M19-MEL 22.1 µM | DLD-1 17.7 µM | A549 80.5 µM | HOP-92 16.6 µM | HT-29 18.4 µM | HL-60 9.77 µM | OVCAR-4 48.4 µM | CAKI-1 8.49 µM | U-251 > 100 µM | SF-295 43 µM | OVCAR-8 17.7 µM | A498 > 100 µM | NCI-H460 67.3 µM | XF498 14.6 µM | LOX IMVI 27.3 µM | COLO 205 18.9 µM
